Laboratory results as given in patent publication US10988465B2, “CXCR4 inhibitors and uses thereof” (X4 Pharmaceuticals, Inc., priority 2016, dated 2021).

What was measured:
[1] = target: T1, CXCR-4 transfected U87 cell line (U87.CXCR4) (Homo sapiens, UniProt P61073); assay: Intracellular CXCL-12-induced calcium mobilization assay (FLIPR); assay type: cell-based; conditions: U87.CXCR4 cells; CXCL-12 25-50 ng/mL; compound added 15 min before; read-out: IC50 CXCL-12 Ca^2+ flux U87.CXCR4+
T1 construct: expressed in transfected cells; host or cells: U87 (U87.CXCR4)
T1 sequence (P61073 whole entry): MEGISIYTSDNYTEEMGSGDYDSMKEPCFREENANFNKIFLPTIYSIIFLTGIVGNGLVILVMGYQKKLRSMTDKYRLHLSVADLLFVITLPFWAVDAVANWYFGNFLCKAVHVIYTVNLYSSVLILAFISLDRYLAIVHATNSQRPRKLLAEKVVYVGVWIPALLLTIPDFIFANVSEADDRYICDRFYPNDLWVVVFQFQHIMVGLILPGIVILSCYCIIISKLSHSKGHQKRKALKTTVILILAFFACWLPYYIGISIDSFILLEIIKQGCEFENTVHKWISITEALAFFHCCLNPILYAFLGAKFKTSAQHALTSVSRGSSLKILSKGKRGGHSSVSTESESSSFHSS
In short: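 CXCL-12 (25-50 ng/mL) was the stimulus, and the intracellular calcium rise was tracked kinetically by FLIPR at 37 °C. Cells were U87.CXCR4 transfectants pre-loaded 45 min at 37 °C with 4 μM (final) Fluo-2 AM in HEPES-buffered HBSS with 0.2% BSA, pH 7.4.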

[2] = target: T2, Jurkat cells expressing CXCR4 (Homo sapiens, UniProt P61073); assay: Chemokine (CXCL12-AF647) binding inhibition assay; conditions: CXCL12-AF647 25 ng/mL, read-out: IC50 CXCL-12 binding Jurkat
T2 construct: endogenous in cells; host or cells: Jurkat
T2 sequence (P61073 whole entry): as above
In short: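 Cells in HBSS, 20 mM HEPES, 0.2% BSA, pH 7.4, preincubated 15 min at room temperature with compound, then 25 ng/mL CXCL12-AF647 for 30 min. After washing and paraformaldehyde fixation, bound ligand read by flow cytometry; percent inhibition calculated from MFI relative to unlabeled and ligand-only controls.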

in vitro = conditions: human, Caco-2, pH 7.4
In short: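 Bidirectional permeability across Caco-2 monolayers in HBSS (pH 7.4) at a test concentration of 10 μM, incubated 0 and 90 min at 37° C (n=2). Monolayer integrity was assessed by TEER and Lucifer yellow. Papp was derived from LC-MS/MS-measured concentrations.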

| SMILES | IC50 [1] | IC50 [2] | Papp A→B at 90 min, 10 μM (in vitro) | Papp B→A at 90 min, 10 μM (in vitro) | efflux ratio at 90 min, 10 μM (in vitro) |
| --- | --- | --- | --- | --- | --- |
| Cc1cccnc1[C@@H]1CCC[C@H](c2nc3ccccc3n2CCCCN2CCOCC2)N1C [I-39] | ≥ 1000 nM | 100 to 1000 nM | 10 to 30 ×10⁻⁶ cm/s | 10 to 30 ×10⁻⁶ cm/s | 0.1 to 10 |
| Cc1cccnc1[C@@H]1CCC[C@H](c2nccn2CCCN(C)C)N1C [I-165, N,N-dimethyl-3-(2-((2R,6S)-1-methyl-6-(3-methylpyridin-2-yl)piperidin-2-yl)-1H-imidazol-1-yl)propan-1-amine] | 100 to 1000 nM | 0.01 to 100 nM | 0.1 to 10 ×10⁻⁶ cm/s | 10 to 30 ×10⁻⁶ cm/s | 0.1 to 10 |
| CN1CCN(c2cccc3nc([C@H]4CCC[C@@H](c5ncccc5Cl)N4)[nH]c23)CC12CC2 [I-133] | ≥ 1000 nM | 0.01 to 100 nM | 10 to 30 ×10⁻⁶ cm/s | 10 to 30 ×10⁻⁶ cm/s | 0.1 to 10 |
| Cc1cccnc1[C@@H]1CCC[C@H](c2nc3cccc(C4CCNCC4)c3[nH]2)N1C [I-11, 2-((2R,6S)-1-methyl-6-(3-methylpyridin-2-yl)piperidin-2-yl)-7-(piperidin-4-yl)-1H-benzo[d]imidazole] | 0.01 to 100 nM | 0.01 to 100 nM | 0.1 to 10 ×10⁻⁶ cm/s | 10 to 30 ×10⁻⁶ cm/s | > 30 |
| Cc1ccnc([C@@H]2CCC[C@H](c3nc4cccc(N5CCN(C)CC5)c4[nH]3)N2C)c1Cl [I-116] | 100 to 1000 nM | 0.01 to 100 nM | 10 to 30 ×10⁻⁶ cm/s | 10 to 30 ×10⁻⁶ cm/s | 0.1 to 10 |
| CC(C)N1CCN(c2cccc3nc([C@H]4CCC[C@@H](c5ncccc5Cl)N4)[nH]c23)CC1 [I-148] | 0.01 to 100 nM | 0.01 to 100 nM | 10 to 30 ×10⁻⁶ cm/s | 10 to 30 ×10⁻⁶ cm/s | 0.1 to 10 |
| CN1CCN(c2cccc3nc([C@H]4CCC[C@@H](c5ncccc5OC(F)(F)F)N4C)[nH]c23)CC1 [I-63] | 0.01 to 100 nM | 100 to 1000 nM | 10 to 30 ×10⁻⁶ cm/s | 0.1 to 10 ×10⁻⁶ cm/s | 0.1 to 10 |
| CN1CCN(c2cccc3nc([C@H]4CCC[C@@H](c5ncccc5OC5CC5)N4C)[nH]c23)CC1 [I-72] | ≥ 1000 nM | 100 to 1000 nM | 10 to 30 ×10⁻⁶ cm/s | 10 to 30 ×10⁻⁶ cm/s | 0.1 to 10 |
| CN1CCC(n2c([C@H]3CCC[C@@H](c4ncccc4Cl)N3C)nc3ccccc32)CC1 [I-134] | 0.01 to 100 nM | 0.01 to 100 nM | 10 to 30 ×10⁻⁶ cm/s | 10 to 30 ×10⁻⁶ cm/s | 0.1 to 10 |
| Cc1cccnc1[C@@H]1CCC[C@H](c2nccn2C2CCN(C)CC2)N1 [I-171] | ≥ 1000 nM | 0.01 to 100 nM | 0.1 to 10 ×10⁻⁶ cm/s | 10 to 30 ×10⁻⁶ cm/s | 0.1 to 10 |
| Cc1cccnc1[C@@H]1CCC[C@H](c2nc3cccc(N4CCC(N(C)C)CC4)c3[nH]2)N1C [I-67] | 0.01 to 100 nM | 0.01 to 100 nM | 0.1 to 10 ×10⁻⁶ cm/s | 10 to 30 ×10⁻⁶ cm/s | 0.1 to 10 |
| Cc1cccnc1[C@@H]1CCC[C@H](c2nccn2CC2CCN(C)CC2)N1 [I-175] | 100 to 1000 nM | 0.01 to 100 nM | 0.1 to 10 ×10⁻⁶ cm/s | 10 to 30 ×10⁻⁶ cm/s | 10 to 30 |
| Cc1cccnc1[C@@H]1CCC[C@H](c2nc3cccc(N4CCNCC4)c3[nH]2)N1C [I-136] | 0.01 to 100 nM | 0.01 to 100 nM | 0.1 to 10 ×10⁻⁶ cm/s | 10 to 30 ×10⁻⁶ cm/s | 10 to 30 |
| Cc1cccnc1[C@@H]1CCC[C@H](c2nc3ccccc3[nH]2)N1Cc1ccccc1-n1cccn1 [I-21, 2-((2R,6S)-1-(2-(1H-pyrazol-1-yl)benzyl)-6-(3-methylpyridin-2-yl)piperidin-2-yl)-1H-benzo[d]imidazole] | 0.01 to 100 nM | 0.01 to 100 nM | 10 to 30 ×10⁻⁶ cm/s | 10 to 30 ×10⁻⁶ cm/s | 0.1 to 10 |
| Cc1cccnc1[C@@H]1CCC[C@H](c2nc3cccc(N4CC5CC(C4)N5C)c3[nH]2)N1C [I-109] | 100 to 1000 nM | 0.01 to 100 nM | 0.1 to 10 ×10⁻⁶ cm/s | 10 to 30 ×10⁻⁶ cm/s | 0.1 to 10 |
| Cc1cccnc1[C@@H]1CCC[C@H](c2nc3cccc(N4CCN(C5CC5)CC4)c3[nH]2)N1 [I-125] | 0.01 to 100 nM | 0.01 to 100 nM | 10 to 30 ×10⁻⁶ cm/s | 10 to 30 ×10⁻⁶ cm/s | 0.1 to 10 |
| Cc1cccnc1[C@@H]1CCC[C@H](c2nc3cccc(N4CCN(C)C(C)C4)c3[nH]2)N1C (stereo partly shown) [I-53] | 0.01 to 100 nM | 0.01 to 100 nM | 10 to 30 ×10⁻⁶ cm/s | 10 to 30 ×10⁻⁶ cm/s | 0.1 to 10 |

Further lines, results first:

| IC50 [1] | IC50 [2] | Papp A→B at 90 min, 10 μM (in vitro) | Papp B→A at 90 min, 10 μM (in vitro) | efflux ratio at 90 min, 10 μM (in vitro) | SMILES |
| --- | --- | --- | --- | --- | --- |
| 0.01 to 100 nM | 0.01 to 100 nM | 0.1 to 10 ×10⁻⁶ cm/s | 0.1 to 10 ×10⁻⁶ cm/s | 0.1 to 10 | Cc1cccnc1[C@@H]1CCC[C@H](c2nc3ccccc3n2CCCN2CCC(F)(F)CC2)N1C [I-30, 1-(3-(4,4-difluoropiperidin-1-yl)propyl)-2-((2R,6S)-1-methyl-6-(3-methylpyridin-2-yl)piperidin-2-yl)-1H-benzo[d]imidazole] |
| ≥ 1000 nM | 100 to 1000 nM | 10 to 30 ×10⁻⁶ cm/s | 10 to 30 ×10⁻⁶ cm/s | 0.1 to 10 | Cc1cccnc1[C@@H]1CCC[C@H](c2nc3cccc(N4CCN(c5ccccn5)CC4)c3[nH]2)N1 [I-162] |
| 0.01 to 100 nM | 0.01 to 100 nM | 10 to 30 ×10⁻⁶ cm/s | 10 to 30 ×10⁻⁶ cm/s | 0.1 to 10 | Cc1cccnc1[C@@H]1CCC[C@H](c2nc3ccccc3n2C2CCN(C)CC2)N1C [I-130] |
| 0.01 to 100 nM | 0.01 to 100 nM | 0.1 to 10 ×10⁻⁶ cm/s | 10 to 30 ×10⁻⁶ cm/s | 10 to 30 | Cc1cccnc1[C@@H]1CCC[C@H](c2nc3ccccc3n2CC2CCCNC2)N1C (stereo partly drawn) [I-12, 2-((2R,6S)-1-methyl-6-(3-methylpyridin-2-yl)piperidin-2-yl)-1-(piperidin-3-ylmethyl)-1H-benzo[d]imidazole] |
| 0.01 to 100 nM | 0.01 to 100 nM | 10 to 30 ×10⁻⁶ cm/s | 10 to 30 ×10⁻⁶ cm/s | 0.1 to 10 | Clc1cccnc1[C@@H]1CCC[C@H](c2nc3cccc(N4CCN(C5CC5)CC4)c3[nH]2)N1 [I-143] |
| 100 to 1000 nM | 0.01 to 100 nM | 0.1 to 10 ×10⁻⁶ cm/s | 10 to 30 ×10⁻⁶ cm/s | 0.1 to 10 | Cc1cccnc1[C@@H]1CCC[C@H](c2nc3ccccc3n2C2CCN(C)CC2)N1 [I-131] |
| 0.01 to 100 nM | 0.01 to 100 nM | 0.1 to 10 ×10⁻⁶ cm/s | 10 to 30 ×10⁻⁶ cm/s | 0.1 to 10 | Cc1cccnc1[C@@H]1CCC[C@H](c2nc3cccc(C4CCN(C)CC4)c3[nH]2)N1C [I-34] |
| 0.01 to 100 nM | 0.01 to 100 nM | 0.1 to 10 ×10⁻⁶ cm/s | 10 to 30 ×10⁻⁶ cm/s | 0.1 to 10 | Cc1cccnc1[C@@H]1CCC[C@H](c2nc3ccccc3[nH]2)N1CCc1cn2ccccc2n1 [I-164] |
| 0.01 to 100 nM | 0.01 to 100 nM | 0.1 to 10 ×10⁻⁶ cm/s | 0.1 to 10 ×10⁻⁶ cm/s | 0.1 to 10 | CN1CCN(c2cccc3nc([C@H]4CCC[C@@H](c5nccc6ccccc56)N4C)[nH]c23)CC1 [I-88] |
